Experiment: Stability assay of Lipid A liposomes (LC-ELSD)
Conditions: for degradation of Lipid A in liposome formulation containing antioxidant: pH=5, 37° C., day 5
Description: The stability of lipids in formulation were performed and monitored using the following HPLC and ELSD (Evaporative Light Scattering Detector) conditions.
Column: Waters Xbridge C18 2.5 μm 2.1×150 mm reversed phase column
Model: Polymer lab ELS 2100
Evaporator temperature: 90
Nebuliser temperature: 60
Fresh Lipid A liposome samples with loaded siRNA AD1661 were prepared as described herein. These Lipid A liposome samples were incubated in 100 mM NaOAc buffer (pH=5) at 37° C., and were subject to LC-ELSD analysis every other day.
In order to examine whether degradation of Lipid A can be prevented by addition of radical scavengers such as butylated hydroxytoluene (BHT or butylhydroxytoluene), Lipid A-containing liposome formulation LNP08 with lipids molar ratio of 60/7.5/31/1.5 (lipid A/DSPC/Cholesterol/PEG-C14 lipid) loaded with siRNA AD1661 containing BHT was tested in the stability assay as described above. These samples were subject to LC-ELSD analysis at day 5.
In order to examine whether the degradation of Lipid A can be prevented by antioxidants such as vitamin E, Lipid A-containing liposome formulation LNP09 loaded with siRNA AD1661 containing various amount of vitamin E were tested in the stability assay as described above. These samples were subject to LC-ELSD analysis at day 5. Chromatographs comparing the stability of various Lipid A liposome formulations with or without vitamin E were shown in FIG. 34.

| Compound | degradation of Lipid A in liposome formulation containing antioxidant | degradation of Lipid A, higher amount of antioxidant (LNP09, pH=5, day 5) |
| --- | --- | --- |
| Cc1cc(C(C)(C)C)c(O)c(C(C)(C)C)c1 [BHT, butylated hydroxytoluene] | inhibited | – |
| vitamin E | inhibited | reverse effect |

From US20120101148A1, “LIPID FORMULATION” (ALNYLAM PHARMACEUTICALS, INC., priority 2009, published 2012)
